Assay type in all cases: physicochemical
Data set [1] in a line: Physico-chemical stability under stress conditions (HR-XRPD, TGMS, HPLC assay). Particulars: for XRPD pattern after stress conditions: all three test conditions (80° C. 1 month; 80° C./75% RH 1 month; 100° C. 3 days). The procedure:
Modifications A, B and C were subjected to the following stress conditions: • 80° C. in closed vials for 1 month; • 80° C./75% RH in open vials for 1 month; • 100° C. in closed vials for 3 days;
Afterwards, the solids were analyzed by HR-XRPD, TGMS and HPLC assay to evaluate potential solid phase change, loss on drying and chemical purity.
Upon completion of the stability test, all solids were analyzed by HR-XRPD, TGMS and HPLC assay.
Auto sampler temp.: 15° C.
Column: Waters Sunfire C18 (100×4.6 mm; 3.5 μm).
Gradient: Mobile phase A: 0.1% TFA in Water
Mobile phase B: 0.1% TFA in Acetonitrile

The nature of data set [2]: Dynamic vapor sorption (DVS). The conditions noted are these: for DVS highest change in mass: 95% RH.
Data set [3] is described as follows: Moisture uptake at 80% and 92% RH (HT-XRPD, TGMS). Particulars: 25° C., 24 hours. As for the experimental part: The moisture sorption of Modification A was evaluated by exposing the solid material to 80% and 92% RH at 25° C. for 24 hours. Afterwards, the solids were analyzed by HT-XRPD to evaluate any change in crystalline phase, and by TGMS to determine the water uptake. […] Therefore, Modification A could be considered non-hygroscopic.

Data set [4] in a line: Stability under compression. Particulars: 5 minutes at 10 tons, hydraulic press. As for the experimental part:
100-300 mg of polymorphic Form A was compressed for 5 minutes at 10 tons with a hydraulic press (diameter of the tablets 13 mm). The sample was then analyzed by XRPD and DSC to check for any occurring polymorphic change.

Data set [5] is described as follows: Solvent equilibration of Modification A (stability in solvent, HT-XRPD). As for the experimental part:
Suspensions of Modification A were prepared in 23 selected solvents and let to equilibrate at room temperature (RT) for 4 weeks and at 50° C. for 2 weeks. Upon completion of the equilibration time, the solids were separated from the liquid phases, dried at ambient conditions and under vacuum (5 mbar/50° C.), and analyzed by HT-XRPD.
When the suspensions dissolved, the solvent was removed by evaporation under vacuum (initially at 200 mbar/RT, then at 5 mbar/50° C.). The liquid phases were also evaporated under the same conditions. Residual solids were analyzed by HT-XRPD.

Data set [6] can be described thus: Granulation simulation experiments. Particulars: water, ethanol, 2-propanol, Acetone, benzylalcohol; dried under vacuum. As for the experimental part:
Granulating solvents were added drop wise to polymorphic Form A until solid is wetted sufficiently. The suspension was stirred by Vortex between each addition. The suspension was dried under vacuum. The remaining solid form was isolated and degree of crystallinity was analyzed by XRPD and/or DSC. The tested Granulating solvents were water, ethanol, 2-propanol, Acetone, benzylalcohol.

A short description of data set [7]: Solvent equilibration of Modifications B and C (stability in solvent, HT-XRPD). The procedure:
Suspensions of Modifications B and C were prepared in 15 selected solvents and let to equilibrate at RT for 2 weeks and at 50° C. for 1 week. Upon completion of the equilibration time, the solids were separated from the liquid phases, dried at ambient conditions and under vacuum (5 mbar/50° C.), and analyzed by HT-XRPD.
When the suspensions dissolved, the solvent was removed by evaporation under vacuum (initially 200 mbar/RT, then 5 mbar/50° C.). The liquid phases were also evaporated under the same conditions. Residual solids were analyzed by HT-XRPD.

Data set [8] can be described thus: Conversion at room temperature monitored by HR-XRPD. Particulars: left at room temperature. An excerpt:
Modification C (Example 2) was left at room temperature and the conversion into Modification B was monitored by HR-XRPD and it was complete after 5 days.

[9] abbreviates: 80° C./75% RH, 1 month, open vial.
The mark [10] stands for this setting: Dichloromethane, 50° C., 1 week.

`C=CC(=O)N(C)CCOc1c(N)ncnc1-c1cc(F)cc(NC(=O)c2ccc(C3CC3)cc2F)c1C` [Modification A, N-(3-(6-Amino-5-(2-(N-methylacrylamido)ethoxy)pyrimidin-4-yl)-5-fluoro-2-methylphenyl)-4-cyclopropyl-2-fluorobenzamide]: the Loss on drying in data set [1] (80° C., 1 month, closed vial) was 0.003%; in data set [1] (setting [9]), 0.003%; in data set [1] (100° C., 3 days, closed vial) it was 0.003%. Also, in data set [1], the “XRPD pattern after stress conditions” value is on record as “unchanged”. Besides, the “Solid recovered after DVS measurements” value in data set [2] (25° and 40° C.) is given as “still Modification A”. The “DVS water vapor uptake” value in data set [2] (25° and 40° C., RH profile 40-0-95-0-95-40%) was “did not show significant water vapor uptake”. In addition, the “DVS highest change in mass” value in data set [2] (25° C.) was 0.4%; in data set [2] (40° C.), 0.3%. The “TGMS mass loss after exposure to humidity” value in data set [3] (80% RH) and in data set [3] (92% RH) was 0.2% each time. In data set [3] (80% and 92% RH), the Hygroscopicity entry is reported as “non-hygroscopic”. In data set [3] (80 and 92% RH), the “Physical stability (HT-XRPD) after exposure to humidity” value is listed as “physically stable”. For the same compound, the “Polymorphic change (XRPD and DSC) after compression” value in data set [4] was “no change to the material”. The “HT-XRPD Evap. ML” value is listed as “A (l.y.)” in data set [5] (Acetone, 50° C., 2 weeks); “A (l.y.)” in data set [5] (Acetonitrile, 50° C., 2 weeks); “A (l.y.)” in data set [5] (Anisole, 50° C., 2 weeks); “A + B” in data set [5] (Chloroform, 50° C., 2 weeks); “A (l.y.)” in data set [5] (Isopropyl acetate, 50° C., 2 weeks); “A (l.y.)” in data set [5] (MeOH, RT, 4 weeks). The “HT-XRPD Evap. ML” value is listed as “A (l.y.)” in data set [5] (MeOH/Acetone 50/50, RT, 4 weeks); “B (l.y.)” in data set [5] (MeOH/DCM 50/50, RT, 4 weeks); “A (l.y.)” in data set [5] (Nitromethane, 50° C., 2 weeks); “A (l.y.)” in data set [5] (Water, 50° C., 2 weeks). For the same compound, the “HT-XRPD Vacuum dried” value in data set [5] (DCM, RT, 4 weeks) is recorded as “B + C”; in data set [5] (MeOH/DCM 50/50, RT, 4 weeks), “B + C”. The “Crystallinity (XRPD and/or DSC) after granulation simulation” value in data set [6] is reported as “No change of crystallinity”.
With `C=CC(=O)N(C)CCOc1c(N)ncnc1-c1cc(F)cc(NC(=O)c2ccc(C3CC3)cc2F)c1C` [Modification B, N-(3-(6-Amino-5-(2-(N-methylacrylamido)ethoxy)pyrimidin-4-yl)-5-fluoro-2-methylphenyl)-4-cyclopropyl-2-fluorobenzamide], the Loss on drying in data set [1] (80° C., 1 month, closed vial) was 0.009%; in data set [1] (setting [9]) it was 0.004%; in data set [1] (100° C., 3 days, closed vial) it was 0.004%. Also, the “XRPD pattern after stress conditions” value in data set [1] was “unchanged”. For the same compound, in data set [2] (Modifications B and C), the “DVS water vapor uptake” value is reported as “did not show significant water vapor uptake”. Moreover, the “XRPD of solid recovered after DVS measurement” value in data set [2] (Modifications B and C, 25° C.) is on record as “unchanged”. The “HT-XRPD Evap. ML” value in data set [7] (Acetonitrile, 50° C., 1 week) is reported as “A (l.y.)”; in data set [7] (Anisole, RT, 2 weeks), “A (l.y.)”; in data set [7] (setting [10]) it was “B + C”; in data set [7] (Dichloromethane, RT, 2 weeks), “B + SB (l.y.)”; in data set [7] (Ethanol, 50° C., 1 week), “A (l.y.)”; in data set [7] (Isopropyl acetate, 50° C., 1 week), “A (l.y.)”. Also, in data set [7] (Nitromethane, RT, 2 weeks), the “HT-XRPD Evap. ML” value is “A (l.y.)”. Also, the “HT-XRPD Ambient Dried” value in data set [7] (Chloroform, RT, 2 weeks) is given as “A (l.y)”; in data set [7] (Dichloromethane, RT, 2 weeks), “C (l.c.)”. Moreover, the “HT-XRPD Vacuum dried” value in data set [7] (Chloroform, RT, 2 weeks) is listed as “(l.c.)”; in data set [7] (setting [10]), “B + C”; in data set [7] (Dichloromethane, RT, 2 weeks) it was “B + C”.
As to `C=CC(=O)N(C)CCOc1c(N)ncnc1-c1cc(F)cc(NC(=O)c2ccc(C3CC3)cc2F)c1C` [Modification C, N-(3-(6-Amino-5-(2-(N-methylacrylamido)ethoxy)pyrimidin-4-yl)-5-fluoro-2-methylphenyl)-4-cyclopropyl-2-fluorobenzamide], the Loss on drying in data set [1] (80° C., 1 month, closed vial) was found to be 0.007%; in data set [1] (setting [9]), 0.006%; in data set [1] (100° C., 3 days, closed vial) it was 0.003%. Also, in data set [1], the “XRPD pattern after stress conditions” value is “converted to Modification B”. For the same compound, the “DVS water vapor uptake” value in data set [2] (Modifications B and C) was “did not show significant water vapor uptake”. In addition, the “XRPD of solid recovered after DVS measurement” value in data set [2] (Modifications B and C, 25° C.) is “mixture of Modifications B and C”. Further, the “Time to complete conversion into Modification B” value in data set [8] is on record as 5 days. Besides, the “HT-XRPD Evap. ML” value in data set [7] (2-Methyl-2-butanol, 50° C., 1 week) is recorded as “A (l.y.)”; in data set [7] (Acetone, 50° C., 1 week) it was “A (l.y.)”; in data set [7] (Acetonitrile, 50° C., 1 week) it was “A (l.y.)”; in data set [7] (Anisole, RT, 2 weeks), “A (l.y.)”; in data set [7] (Chloroform, RT, 2 weeks), “C + SC”; in data set [7] (Cyclopentanone, RT, 2 weeks), “A (l.y)”. In addition, the “HT-XRPD Evap. ML” value is “C (l.y.)” in data set [7] (setting [10]); “A (l.y.)” in data set [7] (Ethanol, 50° C., 1 week); “A (l.y.)” in data set [7] (Ethanol, RT, 2 weeks); “A (l.y.)” in data set [7] (Isopropyl acetate, RT, 2 weeks); “A (l.y.)” in data set [7] (Methanol, RT, 2 weeks); “A (l.y.)” in data set [7] (Nitromethane, 50° C., 1 week). Moreover, the “HT-XRPD Evap. ML” value in data set [7] (Nitromethane, RT, 2 weeks) is “A (l.y.)”; in data set [7] (Water, RT, 2 weeks), “A (l.y.)”. Further, the “HT-XRPD Ambient Dried” value in data set [7] (Chloroform, RT, 2 weeks) is listed as “C + SC”. Besides, the “HT-XRPD Vacuum dried” value in data set [7] (Dichloromethane, RT, 2 weeks) was “B + C”.

These data come from patent US20250268895A1, “Crystalline Forms of a BTK Inhibitor” (NOVARTIS AG, priority 2019, published 2025).
